What is called Ki is the equilibrium dissociation constant of an inhibitor or competing ligand from its target.

The text below walks through data of patent US5187169A, “Method for treatment of neurodegenerative diseases” (R. J. Reynolds Tobacco Company, priority 1992, dated 1993).

Test [1] relates to synaptosomes from the striatal area of rat brain. Briefly: [3H]-dopamine release from rat striatal synaptosomes. It counts as cell-based, Sprague-Dawley rats. The following applies: 0.2 ml of a 20 μM solution of ligand, relative to an equal concentration of (S)-(-)-nicotine. Here is the method: Dopamine release was measured by preparing synaptosomes from the striatal area of rat brain obtained from Sprague-Dawley rats generally according to the procedures set forth by Nagy, et al., J. Neurochem., Vol. 43, pp. 1114-1123 (1984). Striata from 4 rats were homogenized in 2 ml of 0.32M sucrose buffered with 5 mM HEPES (pH 7.5), using a glass-teflon tissue grinder. The homogenate was diluted to 5 ml with additional homogenization solution and centrifuged at 1000×g for 10 min. This procedure was repeated on the new pellet and the resulting supernatant was centrifuged at 12,000×g for 20 min. […] Using this method, 30 to 90 percent of the dopamine was taken up into the synaptosomes, as determined by scintillation counting following filtration through glass fiber filters soaked with 0.5 percent polyethyleneimine. […] After the addition of a 0.2 ml of a 20 μM solution of ligand, the perfusate was collected into scintillation vials at 1 min. intervals and the dopamine released was quantified by scintillation counting. Peaks of radioactivity released above background were summed and the average basal release during that time was subtracted from the total. Release was expressed as a percentage of release obtained with an equal concentration of (S)-(-)-nicotine.

The target of test [2] is high affinity nicotinic receptors. Nature of the test: Inhibition of L-[3H]nicotine binding to mouse brain membrane preparations. Further details: species or system Mice (DBA strain). The following applies: mouse brain membranes, 2 hr incubation at 4° C., 10 nM L-[3H]nicotine, Ki calculated from IC50 by the method of Cheng et al. The method, then: Mice (DBA strain) were maintained on a 12 hour light/dark cycle and were allowed free access to water and food supplied by Wayne Lab Blox, Madison, Wis. Animals used in the present studies were 60 to 90 days of age and weighed 20 to 25 g. Brain membrane preparations were obtained from pooled brain tissue of both males and females.
Mice were killed by cervical dislocation. Brains were removed and placed on an ice-cold platform. […] Protein was determined by the method of Lowry, et al., J. Biol. Chem., Vol. 193, pp. 265-275 (1951), using bovine serum albumin as the standard.
The binding of L-[^3 H]nicotine was measured using a modification of the method of Romano, et al., Science, Vol. 210, pp. 647-650 (1980) as described previously by Marks, et al., Mol. Pharmacol., Vol. 30, pp. 427-436 (1986). The binding of L-[^3 H]nicotine was measured using a 2 hr. incubation at 4° C. […] Nonspecific binding was determined by inclusion of 10 μM nonradioactive nicotine in the incubations. The inhibition of L-[^3 H]nicotine binding by test compounds was determined by including one of eight different concentrations of the test compound in the incubation. […] Inhibition constants (Ki values) were calculated from the IC50 values using the method of Cheng, et al., Biochem. Pharmacol., Vol. 22, pp. 3099-3108 (1973). […]

Consider `CN1C(=O)CC[C@H]1c1cccnc1` [cotinine], for which, in test [1], the “Dopamine Release” value was 20 Percent release relative to (S. Moreover, the Ki in test [2] is 3.9 µM.
